These results are taken from patent US9458120B2, “Phenoxypropanol derivative and pharmaceutical composition including the same” (KOREA INSTITUTE OF SCIENCE AND TECHNOLOGY, priority 2011, dated 2016).

Experiment [1] concerns the target α1G T-type calcium channel (Homo sapiens, UniProt O43497). The experiment is described as follows: Assay for T-type calcium channel inhibition activity (FDSS6000 calcium imaging, KCl activation). It counts as cell-based. As to conditions: 75 s pre-treatment then KCl 75 mM, HEK293 cells expressing α1G T-type calcium channel and Kir2.1. The protocol:
At 12-24 hours before the assay for T-type calcium channel activity, cells of HEK293 cell line (α1G cell line: KCTC 10519BP, GenBank, Korea Research Institute of Bioscience and Biotechnology) which stably express α1G T-type calcium channel and Kir2.1, were sub-cultured in a poly-L-lysine (0.05 mg/ml) treated 96-well plate with the density of 4×10^4 per a well using a 96-well cell dispenser (Titertek). On the day of assay, the 96-well plate to which the cells were attached were washed three times with a HEPES buffer solution (unit mM: 150 NaCl, 5 KCl, 1 MgCl2, 2 CaCl2, 10 HEPES, 10 glucose, pH 7.4) using a 96-well plate automatic washing device (Bio Tek), and then reacted with a HEPES buffer solution containing 5 μM fluo-3/AM and 0.001% (w/v) Pluronic F-127 at room temperature for 1 hour, to label with fluorescent dye, and then further washed twice with the HEPES buffer solution. Thereafter, at 10 minutes before the measurement using a FDSS6000 device, a washing with a HEPES buffer solution containing 10 mM CaCl2 was conducted once more, and the final volume was adjusted to 81 μl. Besides the above 96-well plate containing the cells, additional two 96-well drug plates were provided, in which the 96-well plates contained KCl (final concentration: 75 mM) for activating T-type calcium channel and a blocker drug, respectively.
Since most of cell-based HTS (High throughput screening) devices are equipped with a liquid application system for drug injection, but have no liquid sucking system, the blocker drug to be tested and KCl were respectively provided at the five-times higher concentration in 10 mM CaCl2 HEPES buffer solution at the amount of 27 μl, diluted five-times at the final cell plate volume of 135 μl, and then used in this test. In this Experimental Example, therefore, FDSS6000 (Hamamatsu Photonics) was used as an alternative to HTS device.
Specific FDSS6000 measurement conditions are as follows: After recording the reference value of 20 seconds, the change of intracellular calcium concentration which induced by pre-treatment of the drug (the prepared […]) for 75 seconds followed by administration of KCl was measured, in which the percentage (%) inhibition effect of the test drug was determined, through estimating the area of ratio value of 340/380 in the control without treatment of the test drug as 100%. As a reference drug, 10 μM of mibefradil was always used.
For accurate calcium-imagination, the light sources of 4 xenon lamps in FDSS6000 were radiated to make the cells exposed selectively to the excitation wavelength (340 nm and 380 nm) by computer-controlled filter wheel. Data was obtained at interval of each 1.23 second. The emitter fluorescence light inflow through a 515 nm long-pass filter was obtained as an average 340/380 ratio value for each well in the 96-wells by a cooled CCD camera and digital fluorescence analyzer in the device. All image data and analysis were obtained by using a FDSS6000-exclusive program provided by Hamamatsu Photonics, as described above.

For a further experiment, the target named is T1, TREK-1 channel (Rattus norvegicus, UniProt Q920B6).
T1 construct: expressed in transfected cells; host or cells: COS7 (Korean Cell Line Bank), transient transfection with Effectene
T1 sequence (Q920B6 1-426): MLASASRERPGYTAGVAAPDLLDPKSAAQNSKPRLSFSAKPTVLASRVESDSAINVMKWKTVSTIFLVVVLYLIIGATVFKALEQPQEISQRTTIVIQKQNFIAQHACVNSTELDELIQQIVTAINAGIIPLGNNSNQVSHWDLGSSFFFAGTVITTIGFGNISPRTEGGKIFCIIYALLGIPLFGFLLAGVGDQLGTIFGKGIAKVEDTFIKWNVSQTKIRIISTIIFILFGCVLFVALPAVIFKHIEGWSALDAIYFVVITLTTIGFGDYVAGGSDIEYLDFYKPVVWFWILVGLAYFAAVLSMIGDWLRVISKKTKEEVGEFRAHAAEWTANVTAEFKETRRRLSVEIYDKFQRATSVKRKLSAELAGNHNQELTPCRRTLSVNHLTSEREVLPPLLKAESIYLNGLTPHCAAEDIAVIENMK
The experiment can be described thus: Assay for TREK channel inhibition activity (whole cell patch clamp recording, COS7 cell transfected with GFP-rTREK-1). It counts as cell-based. The note with it: COS7 cells, GFP-rTREK-1, whole-cell patch clamp; for inhibition at 101 µM: COS-7, Table 3 (value ± spread), 101 μM [sic], read-out: block % at 101 μM; for inhibition at 10 µM: COS-7, Table 2, read-out: block % at 10 μM. How it is done: The inhibition activity of the compound of the present invention against TREK-1 channel was measured by measuring the physiological activity by whole cell patch clamp recording.
COS7 cell (obtained from Korean Cell Line Bank (KCLB)) was transfected with GFP-rTREK-1 gene (accession number: AY727922) using an Effectene transfection reagent (Qiagen), and cultured for 24 hours in an incubator at 37° C. As a culture medium, Dulbecco's modified Eagle's medium (DMEM, GIBCO products from Invitrogen) containing 10% by weight of fetal bovine serum (FBS) and 1% by weight of penicillin/streptomycin (5000 unit/ml) was used. The cells thus prepared were adhered on a cover glass, which was placed on a chamber, and then a recording solution (150 mM NaCl, 10 mM HEPES, 10 mM KCl, 2 mM CaCl2, 5.5 mM D-Glucose, all reagents were purchased from Sigma) was applied. A glass microelectrode was filled with an intracellular solution prepared with the composition of 150 mM KCl, 5 mM EGTA, 10 mM HEPES, 0.5 mM CaCl2, 1 mM MgCl2, 4 mM Mg-ATP, and 0.3 mM Na-GTP (all reagents were purchased from Sigma), followed by whole-cell patch clamp recording. The voltage was fixed at −70 mV using a Digidata 1322A data acquisition system (Molecular Devices) and an Axopatch 200A amplifier (Axon Instruments), and the current generated by applying a voltage ramp from −100 mV to +100 mV for 1 second was measured using a Clampex9.2 program. A difference between the current values measured at +100 mV and −100 mV was defined as a current in the above experiment. The currents before and after blocker treatment were measured so as to determine the inhibition activity.
Block %=100−(current after blocker treatment/current before blocker treatment)*100
Background: Patch clamp records ionic current or voltage across a cell membrane.

SMILES strings stand for the structures.

α1G T-type calcium channel, sequence (O43497 whole entry): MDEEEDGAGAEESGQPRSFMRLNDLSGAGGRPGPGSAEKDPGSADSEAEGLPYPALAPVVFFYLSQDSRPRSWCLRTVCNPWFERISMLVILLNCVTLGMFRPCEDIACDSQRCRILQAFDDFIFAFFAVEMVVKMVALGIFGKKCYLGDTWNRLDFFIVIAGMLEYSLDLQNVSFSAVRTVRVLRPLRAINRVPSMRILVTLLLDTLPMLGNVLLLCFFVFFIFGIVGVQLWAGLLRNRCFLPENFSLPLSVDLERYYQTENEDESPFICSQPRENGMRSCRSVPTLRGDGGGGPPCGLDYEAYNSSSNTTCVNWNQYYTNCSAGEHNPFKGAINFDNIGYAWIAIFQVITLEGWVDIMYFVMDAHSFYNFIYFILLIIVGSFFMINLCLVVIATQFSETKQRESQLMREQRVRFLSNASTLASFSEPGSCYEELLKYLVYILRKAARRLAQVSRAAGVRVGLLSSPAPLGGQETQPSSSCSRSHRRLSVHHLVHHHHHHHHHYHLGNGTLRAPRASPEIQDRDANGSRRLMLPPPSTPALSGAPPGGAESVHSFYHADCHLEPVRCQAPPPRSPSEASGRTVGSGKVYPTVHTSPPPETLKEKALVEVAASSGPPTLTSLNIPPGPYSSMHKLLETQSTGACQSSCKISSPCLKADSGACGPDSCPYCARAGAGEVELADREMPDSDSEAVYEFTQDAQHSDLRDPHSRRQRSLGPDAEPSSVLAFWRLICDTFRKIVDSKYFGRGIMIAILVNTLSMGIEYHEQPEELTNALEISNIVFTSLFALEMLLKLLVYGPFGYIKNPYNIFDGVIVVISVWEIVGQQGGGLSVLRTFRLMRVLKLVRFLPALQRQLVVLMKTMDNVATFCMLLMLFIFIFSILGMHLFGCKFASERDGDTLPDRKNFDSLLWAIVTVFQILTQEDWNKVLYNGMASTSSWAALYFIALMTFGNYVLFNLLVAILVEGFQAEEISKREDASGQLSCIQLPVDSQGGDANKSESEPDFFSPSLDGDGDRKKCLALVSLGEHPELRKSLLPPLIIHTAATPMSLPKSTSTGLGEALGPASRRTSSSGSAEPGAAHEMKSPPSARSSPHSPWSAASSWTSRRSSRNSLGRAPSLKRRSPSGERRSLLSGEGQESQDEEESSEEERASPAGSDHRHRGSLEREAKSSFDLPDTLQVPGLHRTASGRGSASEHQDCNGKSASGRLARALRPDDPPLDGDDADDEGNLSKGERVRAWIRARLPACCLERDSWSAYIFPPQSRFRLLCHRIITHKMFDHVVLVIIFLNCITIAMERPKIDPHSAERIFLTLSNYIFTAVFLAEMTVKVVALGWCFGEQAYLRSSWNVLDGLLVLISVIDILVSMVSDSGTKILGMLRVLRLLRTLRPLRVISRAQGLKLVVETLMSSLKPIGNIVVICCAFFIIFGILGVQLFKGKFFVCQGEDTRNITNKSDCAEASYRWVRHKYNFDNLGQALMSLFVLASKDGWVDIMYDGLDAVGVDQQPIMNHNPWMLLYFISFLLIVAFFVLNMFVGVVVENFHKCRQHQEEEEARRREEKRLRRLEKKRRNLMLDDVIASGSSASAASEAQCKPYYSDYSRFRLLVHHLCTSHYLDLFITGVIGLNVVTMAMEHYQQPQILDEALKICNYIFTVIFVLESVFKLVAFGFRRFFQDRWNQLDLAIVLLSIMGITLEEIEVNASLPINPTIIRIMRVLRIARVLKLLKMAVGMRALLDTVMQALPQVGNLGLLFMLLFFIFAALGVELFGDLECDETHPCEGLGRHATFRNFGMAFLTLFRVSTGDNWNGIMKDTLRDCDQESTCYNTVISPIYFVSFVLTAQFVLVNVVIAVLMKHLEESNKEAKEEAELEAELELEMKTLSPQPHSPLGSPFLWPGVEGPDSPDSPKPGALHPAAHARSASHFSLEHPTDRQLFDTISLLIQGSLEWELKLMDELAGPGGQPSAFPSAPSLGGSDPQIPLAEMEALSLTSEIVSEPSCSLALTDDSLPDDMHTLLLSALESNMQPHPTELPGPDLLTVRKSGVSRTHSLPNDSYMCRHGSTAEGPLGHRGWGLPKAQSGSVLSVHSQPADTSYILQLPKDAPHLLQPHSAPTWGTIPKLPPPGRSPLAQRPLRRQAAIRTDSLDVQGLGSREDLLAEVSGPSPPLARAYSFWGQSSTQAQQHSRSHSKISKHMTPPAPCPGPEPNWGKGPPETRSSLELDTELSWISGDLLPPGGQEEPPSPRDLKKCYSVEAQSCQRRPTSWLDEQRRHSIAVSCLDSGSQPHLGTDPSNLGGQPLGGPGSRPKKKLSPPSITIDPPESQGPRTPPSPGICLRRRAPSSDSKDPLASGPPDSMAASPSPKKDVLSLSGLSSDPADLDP

As to `OC(COc1ccc(F)cc1)CN1CCN(Cc2nccn2Cc2ccccc2)CC1` (stereo in doubt) [KKRE10154, (R)-1-(4-((1-benzyl-1H-imidazol-2-yl)methyl)piperazin-1-yl)-3-(4-fluorophenoxy)propan-2-ol], the inhibition in experiment [1] was 39.9%. Further, the inhibition at 101 µM on TREK-1 channel stood at 26.5 ± 3.97%. On to `Cc1ccc(OC[C@@H](O)CN2CCN(Cc3c(F)cccc3Cl)CC2)cc1` [KKRE10138], for which the inhibition at 10 µM at TREK-1 channel was found to be 13%. The inhibition at 101 µM at TREK-1 channel turned out to be 13 ± 10.1%. Further, the results for the “block % at 100 μM” value on TREK-1 channel (Table 2) and at TREK-1 channel (Table 3 (value ± spread)) were 71.47% and 71.47 ± 3.30%, respectively. Take `O=C(CN1CCN(C[C@@H](O)COc2ccc(C(F)(F)F)cc2)CC1)Nc1ccc(F)cc1` [KKRE10145]: at TREK-1 channel, the inhibition at 10 µM is 35.2% and the inhibition at 101 µM came out at 35.2 ± 4.89%.

For `O[C@@H](COc1ccc(C(F)(F)F)cc1)CN1CCN(Cc2nccn2Cc2ccccc2)CC1` [KKRE10153, (R)-1-(4-((1-benzyl-1H-imidazol-2-yl)methyl)piperazin-1-yl)-3-(4-(trifluoromethyl)phenoxy)propan-2-ol], the inhibition in experiment [1] stood at 46.9%. At TREK-1 channel, the inhibition at 10 µM came to 52.1% and the inhibition at 101 µM amounted to 52.1 ± 7.24%. `O[C@@H](COc1ccc(F)cc1)CN1CCN(Cc2nccn2Cc2ccccc2)CC1` [KKRE10155, (R)-1-(4-((1-benzyl-1H-imidazol-2-yl)methyl)piperazin-1-yl)-3-(4-fluorophenoxy)propan-2-ol]: the inhibition in experiment [1] came out at 33.7%. The inhibition at 101 µM on TREK-1 channel is 24 ± 10.6%.

For the compound `O[C@@H](COc1ccc(F)cc1)CN1CCC(N2CCOCC2)CC1` [KKRE10156, (R)-1-(4-fluorophenoxy)-3-(4-morpholinopiperidin-1-yl)propan-2-ol], the inhibition in experiment [1] was determined as 5.31%. Besides, the inhibition at 101 µM on TREK-1 channel came out at 16.4 ± 5.65%. For the compound `COc1cccc(C2CCN(C[C@@H](O)COc3ccc(F)cc3)CC2)c1` [KKRE10162, (R)-1-(4-fluorophenoxy)-3-(4-(3-methoxyphenyl)piperidin-1-yl)propan-2-ol], on TREK-1 channel, the inhibition at 10 µM is 52.5% and the inhibition at 101 µM was determined as 52.5 ± 6.76%. Regarding `O=C(CN1CCN(CC(O)COc2ccc(C(F)(F)F)cc2)CC1)NC1CCCCC1` (centres unmarked) [KKRE10177, N-cyclohexyl-2-(4-(2-hydroxy-3-(4-(trifluoromethyl)phenoxy)propyl)piperazin-1-yl)acetamide], the inhibition in experiment [1] is 42%.

As to `O[C@H](COc1ccc(C(F)(F)F)cc1)CN1CCC(N2CCCC2)CC1` [KKRE10189, (S)-1-(4-(pyrrolidin-1-yl)piperidin-1-yl)-3-(4-(trifluoromethyl)phenoxy)propan-2-ol], the inhibition in experiment [1] stood at 8.45%. Take `O[C@H](COc1ccc(C(F)(F)F)cc1)CN1CCC(F)(F)CC1` [KKRE10190, (S)-1-(4,4-difluoropiperidin-1-yl)-3-(4-(trifluoromethyl)phenoxy)propan-2-ol]: the inhibition in experiment [1] stood at 35%.

Take `O[C@H](COc1ccc(C(F)(F)F)cc1)CN1CCC(O)(c2ccccc2)CC1` [KKRE10191, (S)-1-(2-hydroxy-3-(4-(trifluoromethyl)phenoxy)propyl)-4-phenylpiperidin-4-ol]: the inhibition in experiment [1] was determined as 16.8%.

For the compound `Cc1ccc(CNC(=O)CN2CCN(C[C@H](O)COc3ccccc3)CC2)cc1` [KKRE10205, (S)-2-(4-(2-hydroxy-3-phenoxypropyl)piperazin-1-yl)-N-(4-methylbenzyl)acetamide], on TREK-1 channel, the inhibition at 10 µM came to 26.4% and the inhibition at 101 µM came to 26.4 ± 12.2%. For `O=C(CN1CCN(C[C@@H](O)COc2ccccc2)CC1)NCc1ccc(C(F)(F)F)cc1` [KKRE10206, (R)-2-(4-(2-hydroxy-3-phenoxypropyl)piperazin-1-yl)-N-(4-(trifluoromethyl)benzyl)acetamide], at TREK-1 channel, the inhibition at 101 µM stood at 44 ± 7.7%. Consider `O=C(CN1CCN(C[C@H](O)COc2ccccc2)CC1)NCc1ccc(C(F)(F)F)cc1` [KKRE10207, (S)-2-(4-(2-hydroxy-3-phenoxypropyl)piperazin-1-yl)-N-(4-(trifluoromethyl)benzyl)acetamide], for which, on TREK-1 channel, the inhibition at 10 µM is 53% and the inhibition at 101 µM amounted to 53 ± 5.98%. `O=C(CN1CCN(C[C@@H](O)COc2ccc(C(F)(F)F)cc2)CC1)NCc1cc(C2CC2)n(-c2ccccc2)n1` [KKRE10212, (R)-N-((5-cyclopropyl-1-phenyl-1H-pyrazol-3-yl)methyl)-2-(4-(2-hydroxy-3-(4-(trifluoromethyl)phenoxy)propyl)piperazin-1-yl)acetamide]: the inhibition in experiment [1] came out at 74.3%. As for `CC(C)Cc1cc(CN2CCN(C[C@@H](O)COc3ccc(C(F)(F)F)cc3)CC2)nn1-c1ccccc1` [KKRE10231], the inhibition at 101 µM at TREK-1 channel turned out to be 48.5 ± 4.26%. On the same count and under the same terms, under `CC(C)Cc1cc(CN2CCN(C[C@H](O)COc3ccc(F)cc3)CC2)nn1-c1ccccc1` [KKRE10232] stands 21.7 ± 3.13%. Consider `CC(C)Cc1cc(CN2CCN(C[C@@H](O)COc3ccc(F)cc3)CC2)nn1-c1ccccc1` [KKRE10233], for which, on TREK-1 channel, the inhibition at 101 µM stood at 21.6 ± 4.63%. Consider `CC(C)Cc1cc(CN2CCN(C[C@H](O)COc3ccc(C(F)(F)F)cc3)CC2)nn1-c1ccccc1` [KKRE10234], for which the inhibition at 101 µM on TREK-1 channel stood at 84.2 ± 2.22%.

As for `CC[C@H]1CN2CC[C@H]1C[C@H]2[C@H](O)c1ccnc2ccc(OC)cc12` [hydroquinine, reference compound], at TREK-1 channel, the inhibition at 10 µM came to 19.8% and the inhibition at 101 µM was determined as 19.8 ± 9.57%. The “block % at 100 μM” value at TREK-1 channel (Table 2) is on record as 49.71%. For the same compound, the “block % at 100 μM” value at TREK-1 channel (Table 3 (value ± spread)) came out at 49.71 ± 5.83%.

As for `C=C[C@H]1C[N@@]2CC[C@H]1C[C@@H]2[C@@H](O)c1ccnc2ccc(OC)cc12` [quinidine, reference compound], the “block % at 100 μM” value was found to be 33.46% on TREK-1 channel (Table 2) and 33.46 ± 8.09% on TREK-1 channel (Table 3 (value ± spread)). In the case of `C=C[C@H]1C[N@@]2CC[C@H]1C[C@H]2[C@H](O)c1ccnc2ccc(OC)cc12` [quinine, reference compound], at TREK-1 channel, the inhibition at 10 µM is 17% and the inhibition at 101 µM was found to be 17 ± 6.93%. Besides, the “block % at 100 μM” value on TREK-1 channel (Table 2) worked out at 50.00%. The “block % at 100 μM” value at TREK-1 channel (Table 3 (value ± spread)) is reported as 50.00 ± 5.72%.
